Results from PMC4710522, “A Novel Triazolopyridine-Based Spleen Tyrosine Kinase Inhibitor That Arrests Joint Inflammation” (PLoS ONE, 2016).
Several values for one entry are separate records, joined by “and”; a condition that tells them apart may be missing. Equal entries are not always repeated. Where two headings read alike, the source gives them in different places.

Legend:
MSK2_h = target: T1, MSK2_h (Homo sapiens, UniProt O75676); experiment: SelectScreen kinase assay; format: biochemical; settings: KM ATP, read-out: % control
T1 construct: purchased Life Technologies (Invitrogen) SelectScreen, Z'-LYTE / Adapta

PhK-gamma1_h = target: T2, PhK-gamma1_h (Homo sapiens, UniProt Q16816); experiment: SelectScreen kinase assay; format: biochemical; settings: KM ATP, read-out: % control
T2 construct: purchased Life Technologies (Invitrogen) SelectScreen, Z'-LYTE / Adapta

CK1-gamma3_h = target: T3, CK1-gamma3_h (Homo sapiens, UniProt Q9Y6M4); experiment: SelectScreen kinase assay; format: biochemical; settings: KM ATP, read-out: % control
T3 construct: purchased Life Technologies (Invitrogen) SelectScreen, Z'-LYTE / Adapta

LRRK2 G2019S_h = target: T4, LRRK2 G2019S_h (Homo sapiens, UniProt Q5S007, G2019S); experiment: SelectScreen kinase assay; format: biochemical; settings: KM ATP, read-out: % control
T4 construct: purchased Life Technologies (Invitrogen) SelectScreen, Z'-LYTE / Adapta

[1] = test system: proinflammatory analytes in paw tissue; experiment: inflammatory cytokines measured in the paw, rat CIA; format: in vivo
Experimental: Following the last administration of CC-509, paw samples were collected and processed for cytokine and chemokine analysis (Aushon Biosciences, Billerica, MA). Briefly paws were snap-frozen and pulverized in liquid nitrogen followed by addition of cell signal lysis buffer in the presence of protease and phosphatase inhibitors (Sigma Chemicals, St. Louis, MO). Samples were homogenized on high speed for 30 seconds, incubated on ice for 20 minutes then sonicated at high intensity for 1 minute. Samples were spun at high speed and supernatants were collected for cytokine analysis.

ZIPK_h = target: T5, ZIPK_h (Homo sapiens, UniProt O43293); experiment: SelectScreen kinase assay; format: biochemical; settings: KM ATP, read-out: % control
T5 construct: purchased Life Technologies (Invitrogen) SelectScreen, Z'-LYTE / Adapta

Flt4_h = Flt4_h (Homo sapiens, UniProt P35916); experiment: SelectScreen kinase assay; format: biochemical
PDE2A = target: T6, PDE2A (Homo sapiens, UniProt O00408); experiment: non-kinase enzyme panel (CEREP); format: biochemical
T6 construct: purchased CEREP (contract assay)
Experimental: (§1) Syk kinase mode of inhibition studies, including parameters described in Fig 1, were conducted on the LC3000 platform by Caliper Life Sciences (Hopkinton, MA) according to standard protocols developed by the supplier. […] Non-kinase enzyme assays and GPCR, ion channel, and transporter binding assays were run by CEREP (France). Non-GLP manual patch clamp hERG assays were run by ChanTest (Cleveland, Ohio). Vivid® Assay kits (Life Technologies) were used to measure the cytochrome P450 inhibition of the compound against CYP3A, CYP2C9, CYP2C19, CYP2D6, and CYP1A2, as described.

5-lipoxygenase = target: T7, 5-lipoxygenase (Homo sapiens, UniProt P09917); experiment: non-kinase enzyme panel (CEREP); format: biochemical
T7 construct: CEREP (contract assay)
Experimental: as §1

PDE5 = target: T8, PDE5 (Homo sapiens, UniProt O76074); experiment: non-kinase enzyme panel (CEREP); format: biochemical
T8 construct: purchased CEREP (contract assay)
Experimental: as §1

Aurora A = target: T9, Aurora A (Homo sapiens, UniProt O14965); experiment: Aurora A IMAP TR-FRET assay; format: biochemical; settings: in-house, mean ± SD
T9 construct: purchased Millipore 14-511

cSRC_h = target: T10, cSRC_h (Homo sapiens, UniProt P12931); experiment: SelectScreen kinase assay; format: biochemical; settings: KM ATP, read-out: % control
T10 construct: purchased Life Technologies (Invitrogen) SelectScreen, Z'-LYTE / Adapta

RetA = target: T11, RetA (Homo sapiens, UniProt P07949); experiment: Ret A HTRF assay; format: biochemical; settings: in-house, mean ± SD
T11 construct: purchased Life Technologies PV3819
Experimental: CC-509 was prepared at a concentration of 1.5 mM in DMSO followed by 3-fold dilutions in Greiner […] polypropylene plates. A 1:4 dilution of compounds by 8 μL/well transfer from the polypropylene plates to 24 μL/well Assay Buffer (50 mM HEPES pH 7.6, 1 mM DTT, 10 mM MgCl2, 0.01% Triton X-100, 0.01% BSA and 0.1 mM EDTA) in Costar 3710 384 well black plates was then performed. Kinases (13 μL/well of 31 ng/ml RetA (Life Technologies, Grand Island, NY PV3819) in Assay Buffer) or Assay Buffer only (background controls) were added to Costar 3710 384-well black plates for the HTRF assays and compound (2 μL/ well) was added from the 1:4 dilution plate. […] Time resolved fluorescence was read in assay plates on a PerkinElmer EnVision. […] The IC50 value was determined as described in the data fitting section below.
For the TEL-Syk assay, the intensity values for the 700 and 800 channel were exported as text files in ActivityBase (IDBS, Guildford, UK) to derive the ratios that reflect kinase activity. […] For the JAK2 HEL and Ramos NFAT β-lactamase assays, the fluorescence values obtained at 460 nm and 530 nm were exported into ActivityBase to calculate response ratios. […] Evans blue dye extravasation was expressed as mean ± SEM and % inhibition for the test article groups was normalized to the cromolyn positive control. […] Data is expressed as mean ± SEM of each group with n = 6–12. […]

[2] = rat CIA, cited from earlier work

Flt4_h, sequence (P35916 25-1363): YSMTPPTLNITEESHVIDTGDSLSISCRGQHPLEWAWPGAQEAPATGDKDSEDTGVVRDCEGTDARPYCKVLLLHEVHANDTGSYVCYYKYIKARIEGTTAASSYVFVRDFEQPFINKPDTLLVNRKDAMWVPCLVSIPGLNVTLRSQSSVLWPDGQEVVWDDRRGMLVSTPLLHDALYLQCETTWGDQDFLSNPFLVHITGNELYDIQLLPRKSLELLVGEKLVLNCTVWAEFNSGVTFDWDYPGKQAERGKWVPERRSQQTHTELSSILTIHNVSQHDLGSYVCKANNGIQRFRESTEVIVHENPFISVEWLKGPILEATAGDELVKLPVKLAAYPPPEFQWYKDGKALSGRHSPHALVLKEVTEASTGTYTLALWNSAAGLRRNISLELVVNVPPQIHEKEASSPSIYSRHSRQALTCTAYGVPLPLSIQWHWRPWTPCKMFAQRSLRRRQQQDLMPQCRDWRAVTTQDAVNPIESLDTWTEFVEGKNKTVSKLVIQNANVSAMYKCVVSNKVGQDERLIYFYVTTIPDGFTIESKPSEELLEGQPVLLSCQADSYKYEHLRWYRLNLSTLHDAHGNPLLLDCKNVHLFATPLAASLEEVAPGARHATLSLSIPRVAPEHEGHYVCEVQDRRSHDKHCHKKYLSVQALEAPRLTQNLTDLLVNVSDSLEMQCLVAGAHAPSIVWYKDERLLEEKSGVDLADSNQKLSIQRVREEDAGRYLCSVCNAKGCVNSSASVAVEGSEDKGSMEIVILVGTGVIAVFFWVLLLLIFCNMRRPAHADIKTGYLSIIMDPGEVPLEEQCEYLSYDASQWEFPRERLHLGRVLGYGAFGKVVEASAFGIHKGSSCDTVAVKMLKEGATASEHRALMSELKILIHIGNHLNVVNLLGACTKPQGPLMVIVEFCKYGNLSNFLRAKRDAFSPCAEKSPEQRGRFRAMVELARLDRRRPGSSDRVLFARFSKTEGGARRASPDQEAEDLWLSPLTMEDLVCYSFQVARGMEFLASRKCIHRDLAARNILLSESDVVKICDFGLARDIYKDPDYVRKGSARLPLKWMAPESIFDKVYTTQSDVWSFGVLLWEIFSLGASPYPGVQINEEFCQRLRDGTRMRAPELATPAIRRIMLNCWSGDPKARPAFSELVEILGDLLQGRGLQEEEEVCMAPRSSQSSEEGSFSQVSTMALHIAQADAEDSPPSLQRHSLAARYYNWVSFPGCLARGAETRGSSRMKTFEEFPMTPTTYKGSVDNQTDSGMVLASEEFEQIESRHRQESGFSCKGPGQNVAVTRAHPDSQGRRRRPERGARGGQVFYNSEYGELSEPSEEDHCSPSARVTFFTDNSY
T11 sequence (P07949 29-1114): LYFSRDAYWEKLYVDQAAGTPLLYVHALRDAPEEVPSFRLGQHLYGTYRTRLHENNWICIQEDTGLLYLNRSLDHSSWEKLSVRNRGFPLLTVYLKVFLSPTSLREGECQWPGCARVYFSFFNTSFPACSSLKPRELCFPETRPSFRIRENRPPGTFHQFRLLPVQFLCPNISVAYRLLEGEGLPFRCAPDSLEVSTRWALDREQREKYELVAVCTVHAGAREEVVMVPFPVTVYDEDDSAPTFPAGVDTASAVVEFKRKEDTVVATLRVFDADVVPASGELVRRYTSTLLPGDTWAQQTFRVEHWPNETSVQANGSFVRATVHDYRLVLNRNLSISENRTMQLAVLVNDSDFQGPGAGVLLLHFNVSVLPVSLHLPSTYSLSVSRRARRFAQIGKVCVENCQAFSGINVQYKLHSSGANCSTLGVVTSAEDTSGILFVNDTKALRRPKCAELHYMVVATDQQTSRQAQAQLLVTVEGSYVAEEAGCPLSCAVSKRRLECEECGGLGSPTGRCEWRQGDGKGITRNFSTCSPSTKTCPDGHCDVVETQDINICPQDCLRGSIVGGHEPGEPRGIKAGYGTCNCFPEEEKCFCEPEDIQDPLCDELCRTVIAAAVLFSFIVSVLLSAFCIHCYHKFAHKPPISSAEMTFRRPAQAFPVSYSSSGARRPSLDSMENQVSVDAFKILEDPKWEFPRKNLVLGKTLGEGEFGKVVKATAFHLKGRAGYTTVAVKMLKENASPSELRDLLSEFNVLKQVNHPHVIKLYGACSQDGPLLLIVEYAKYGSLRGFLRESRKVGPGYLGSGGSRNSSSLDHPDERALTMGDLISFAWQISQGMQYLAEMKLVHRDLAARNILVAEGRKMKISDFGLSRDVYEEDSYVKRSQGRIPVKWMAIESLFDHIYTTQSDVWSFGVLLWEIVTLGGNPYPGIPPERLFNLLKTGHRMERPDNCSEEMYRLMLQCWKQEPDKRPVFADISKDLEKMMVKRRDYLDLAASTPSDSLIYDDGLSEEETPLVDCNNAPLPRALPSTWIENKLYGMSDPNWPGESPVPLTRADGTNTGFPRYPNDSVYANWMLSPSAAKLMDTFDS
T3 sequence (Q9Y6M4 whole entry): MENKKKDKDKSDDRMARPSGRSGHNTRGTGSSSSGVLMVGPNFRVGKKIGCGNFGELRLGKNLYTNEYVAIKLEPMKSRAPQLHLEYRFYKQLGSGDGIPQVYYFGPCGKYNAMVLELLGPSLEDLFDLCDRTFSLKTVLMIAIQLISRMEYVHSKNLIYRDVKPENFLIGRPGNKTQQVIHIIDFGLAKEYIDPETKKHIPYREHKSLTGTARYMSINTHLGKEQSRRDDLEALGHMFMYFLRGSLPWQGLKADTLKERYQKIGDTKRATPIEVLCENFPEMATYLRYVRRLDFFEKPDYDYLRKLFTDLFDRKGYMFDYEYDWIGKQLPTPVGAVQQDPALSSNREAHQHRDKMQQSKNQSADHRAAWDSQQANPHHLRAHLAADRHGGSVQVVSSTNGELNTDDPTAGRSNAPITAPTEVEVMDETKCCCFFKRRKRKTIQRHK
T2 sequence (Q16816 whole entry): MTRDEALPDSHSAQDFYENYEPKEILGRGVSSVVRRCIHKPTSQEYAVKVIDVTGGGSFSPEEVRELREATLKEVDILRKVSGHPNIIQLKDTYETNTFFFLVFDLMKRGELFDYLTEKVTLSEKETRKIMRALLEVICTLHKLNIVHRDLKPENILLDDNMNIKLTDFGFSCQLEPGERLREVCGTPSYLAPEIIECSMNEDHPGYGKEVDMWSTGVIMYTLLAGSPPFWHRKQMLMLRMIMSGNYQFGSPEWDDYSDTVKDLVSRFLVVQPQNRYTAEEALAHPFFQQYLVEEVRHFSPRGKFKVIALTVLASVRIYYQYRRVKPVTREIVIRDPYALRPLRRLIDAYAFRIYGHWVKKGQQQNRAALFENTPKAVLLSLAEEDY
T9 sequence (O14965 whole entry): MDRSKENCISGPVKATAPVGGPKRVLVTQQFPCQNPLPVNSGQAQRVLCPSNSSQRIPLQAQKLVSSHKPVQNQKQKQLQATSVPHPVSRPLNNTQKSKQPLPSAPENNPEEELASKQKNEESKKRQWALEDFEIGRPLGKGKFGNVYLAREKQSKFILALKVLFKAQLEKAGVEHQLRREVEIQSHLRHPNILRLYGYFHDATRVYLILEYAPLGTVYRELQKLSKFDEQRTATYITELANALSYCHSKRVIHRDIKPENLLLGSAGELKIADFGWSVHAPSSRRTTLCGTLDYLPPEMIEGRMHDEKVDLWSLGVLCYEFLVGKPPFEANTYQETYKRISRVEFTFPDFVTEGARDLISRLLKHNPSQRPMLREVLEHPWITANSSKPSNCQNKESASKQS
T7 sequence (P09917 whole entry, species assumed): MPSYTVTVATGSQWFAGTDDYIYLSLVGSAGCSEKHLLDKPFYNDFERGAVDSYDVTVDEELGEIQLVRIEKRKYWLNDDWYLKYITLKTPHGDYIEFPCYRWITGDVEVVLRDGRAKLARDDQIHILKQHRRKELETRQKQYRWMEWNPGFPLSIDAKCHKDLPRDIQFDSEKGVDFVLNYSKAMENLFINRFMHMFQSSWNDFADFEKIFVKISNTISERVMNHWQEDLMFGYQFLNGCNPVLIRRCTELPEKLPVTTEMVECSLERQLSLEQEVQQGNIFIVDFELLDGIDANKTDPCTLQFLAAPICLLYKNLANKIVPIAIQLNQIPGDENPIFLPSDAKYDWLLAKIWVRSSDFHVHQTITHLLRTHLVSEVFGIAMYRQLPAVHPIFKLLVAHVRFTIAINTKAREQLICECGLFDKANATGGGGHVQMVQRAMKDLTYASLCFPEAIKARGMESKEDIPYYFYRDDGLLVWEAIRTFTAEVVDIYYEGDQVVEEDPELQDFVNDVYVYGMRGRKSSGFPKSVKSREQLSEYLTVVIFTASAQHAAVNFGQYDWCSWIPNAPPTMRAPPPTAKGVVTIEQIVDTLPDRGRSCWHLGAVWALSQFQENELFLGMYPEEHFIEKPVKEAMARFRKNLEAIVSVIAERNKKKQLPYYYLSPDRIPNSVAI
T10 sequence (P12931 whole entry): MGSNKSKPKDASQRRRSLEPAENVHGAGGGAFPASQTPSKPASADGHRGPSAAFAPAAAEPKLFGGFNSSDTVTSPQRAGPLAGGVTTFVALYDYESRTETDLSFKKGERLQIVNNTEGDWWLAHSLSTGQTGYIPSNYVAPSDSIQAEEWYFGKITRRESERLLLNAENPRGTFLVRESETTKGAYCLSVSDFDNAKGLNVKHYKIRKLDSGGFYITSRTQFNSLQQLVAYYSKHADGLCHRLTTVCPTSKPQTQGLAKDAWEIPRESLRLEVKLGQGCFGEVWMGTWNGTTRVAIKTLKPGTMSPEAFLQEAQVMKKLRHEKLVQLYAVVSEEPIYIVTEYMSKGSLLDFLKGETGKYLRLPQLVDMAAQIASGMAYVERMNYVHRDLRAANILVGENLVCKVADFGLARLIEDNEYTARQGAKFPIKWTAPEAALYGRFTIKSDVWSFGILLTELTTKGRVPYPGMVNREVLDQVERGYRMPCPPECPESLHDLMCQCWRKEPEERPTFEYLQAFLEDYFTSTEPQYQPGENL

| SMILES | remaining activity at 3 µM (MSK2_h) [%] | remaining activity at 3 µM (PhK-gamma1_h) [%] | remaining activity at 3 µM (CK1-gamma3_h) [%] | remaining activity at 3 µM (LRRK2 G2019S_h) [%] | other proinflammatory analytes in the paw (IL-1β, IL-6, CRP) ([1]; day 18) | MCP-1 in the paw ([1]; day 18, 15 mg/kg q.d. and b.i.d. groups, p<0.01) | RANTES in the paw ([1]; day 18, all CC-509 dose levels, p<0.001) | KC in the paw ([1]; day 18, only in the 15 mg/kg b.i.d. group, p<0.05) | MIP-1α in the paw ([1]; day 18, CC-509 all dose levels p<0.01, indomethacin p<0.05) | remaining activity at 3 µM (ZIPK_h) [%] | remaining activity at 3 µM (Flt4_h; 3 µM, KM ATP, read-out: % control) [%] | IC50 (Flt4_h; 10-point dose-response, commercial vendor) | inhibition at 10 µM (PDE2A) [%] | inhibition at 10 µM (5-lipoxygenase) [%] | inhibition at 10 µM (PDE5) [%] | IC50 (Aurora A) [nM] | remaining activity at 3 µM (cSRC_h) [%] | IC50 (RetA) [nM] | exposure following a single dose ([2]; 10 mg/kg b.i.d.) [µM·h] | exposure following a single dose ([2]; 30 mg/kg b.i.d.) [µM·h] |
| --- | --- | --- | --- | --- | --- | --- | --- | --- | --- | --- | --- | --- | --- | --- | --- | --- | --- | --- | --- | --- |
| c1cc(CC2CCOCC2)n2nc(Nc3ccc4c(NC5CCOCC5)n[nH]c4c3)nc2c1 [CC-509, [3-(2H-3,4,5,6-tetrahydropyran-4-ylamino)(1H-indazol-6-yl)][5-(2H-3,4,5,6-tetrahydropyran-4-ylmethyl)(2H-1,2,4-triazolo[1,5-a]pyridin-2-yl)]amine] | 81 | 75 | 50 | 4 | No other significant effects | significantly reduced | significantly reduced | reduced | significantly reduced | 96 | 1 | 50 nM and 53.9 nM | 89 | 73 | 90 | 220 ± 50 | 67 | 750 ± 190 | – | – |
| COc1cc(Nc2ncc(F)c(Nc3ccc4c(n3)NC(=O)C(C)(C)O4)n2)cc(OC)c1OC [R406, reference compound] | – | – | – | – | – | – | – | – | – | – | – | – | – | – | – | – | – | – | 15 | 38 |
